# From ChEMBL document CHEMBL1201862, “PubChem BioAssay data set” (2004)
# The source made the active and inactive calls.
# Assays:
# [1] = biological target: Cyclin-dependent kinase 5/CDK5 activator 1 (Homo sapiens, UniProt Q00535); experiment: CDK5/p35 kinase inhibitors, dose response, biochemical, cherry-picked samples, set 2 (AID 504545)
# Tumor necrosis factor = Tumor necrosis factor (Homo sapiens, UniProt P01375); experiment: TNFa-triggered NF-kB activation inhibitors, SAR follow-up, cell-based, revised (AID 2337); format: functional
# [2] = biological target: T1, Nucleotide-binding oligomerization domain-containing protein 1 (Homo sapiens, UniProt Q9Y239); experiment: NOD1 signaling inhibitors, SAR follow-up, revised (AID 2333); format: functional
# T1 sequence (Q9Y239 whole entry): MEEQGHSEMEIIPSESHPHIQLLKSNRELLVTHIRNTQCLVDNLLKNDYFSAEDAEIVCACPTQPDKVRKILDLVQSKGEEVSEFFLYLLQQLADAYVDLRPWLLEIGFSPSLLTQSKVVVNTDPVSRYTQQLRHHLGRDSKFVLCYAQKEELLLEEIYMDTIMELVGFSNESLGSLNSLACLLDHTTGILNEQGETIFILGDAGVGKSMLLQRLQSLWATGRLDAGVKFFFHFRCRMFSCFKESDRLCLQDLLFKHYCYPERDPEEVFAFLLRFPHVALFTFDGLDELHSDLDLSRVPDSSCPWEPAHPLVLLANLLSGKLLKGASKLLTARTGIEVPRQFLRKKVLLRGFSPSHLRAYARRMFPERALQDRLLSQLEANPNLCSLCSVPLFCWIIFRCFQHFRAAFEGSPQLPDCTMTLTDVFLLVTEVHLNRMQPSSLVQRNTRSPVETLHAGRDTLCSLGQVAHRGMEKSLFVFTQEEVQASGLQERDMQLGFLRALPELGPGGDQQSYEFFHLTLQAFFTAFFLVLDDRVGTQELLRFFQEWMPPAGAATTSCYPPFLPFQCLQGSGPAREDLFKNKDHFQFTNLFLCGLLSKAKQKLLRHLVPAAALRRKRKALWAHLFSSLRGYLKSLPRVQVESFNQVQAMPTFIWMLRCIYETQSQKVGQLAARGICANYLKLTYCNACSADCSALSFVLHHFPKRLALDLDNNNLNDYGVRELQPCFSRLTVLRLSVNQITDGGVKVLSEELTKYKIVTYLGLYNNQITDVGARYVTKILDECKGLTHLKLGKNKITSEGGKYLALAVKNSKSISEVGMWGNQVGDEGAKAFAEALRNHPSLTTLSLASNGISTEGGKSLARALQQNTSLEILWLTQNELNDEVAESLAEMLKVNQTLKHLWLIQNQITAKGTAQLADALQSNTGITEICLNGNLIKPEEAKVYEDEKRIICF
# [3] = biological target: Nucleotide-binding oligomerization domain-containing protein 2 (Homo sapiens, UniProt Q9HC29); experiment: PubChem AID 2334; format: functional
# Interleukin-8 = Interleukin-8 (Homo sapiens, UniProt P10145); experiment: SAR analysis of tumor necrosis factor alpha (TNF-alpha) induced IL-8 secretion in MCF-7/NOD1 cells. [Related pubchem assays (depositor defined):AID1575, AID2250, AID2260]; format: functional, cell-based
# HEK293 [4] = experiment: cells; settings: Homo sapiens
# Cytochrome P450 2C19 = Cytochrome P450 2C19 (Homo sapiens, UniProt P33261); experiment: Cytochrome panel assay with activity outcomes. Panel member name: p450-cyp2c19 Compounds with AC50 equal or less than 10 uM are considered active; format: functional; settings: read-out: AC50
# Staphylococcus aureus = experiment: Inhibitors of Bacterial Quorum Sensing Structure Activity Relationship (SAR) Analysis: Dose Response Assay. [Related pubchem assays: 700, 527 ]; format: functional, organism-based
# Cytochrome P450 3A4 = Cytochrome P450 3A4 (Homo sapiens, UniProt P08684);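 also: CYP3A4 tested as one member of a cytochrome P450 panel screen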
# Phospholipase A2 = Phospholipase A2 (Homo sapiens, UniProt P04054); format: functional;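 also: confirmatory dose-response counterscreen on phospholipase A2, testing hits that came from an ultra-high-throughput screen for ATG4B inhibitors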
# Cysteine protease ATG4B = biological target: T2, Cysteine protease ATG4B (Homo sapiens, UniProt Q9Y4P1); format: functional;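 also: Fluorescence-based dose-response confirmation assay measuring inhibition of ATG4B activity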
# T2 sequence (Q9Y4P1 whole entry): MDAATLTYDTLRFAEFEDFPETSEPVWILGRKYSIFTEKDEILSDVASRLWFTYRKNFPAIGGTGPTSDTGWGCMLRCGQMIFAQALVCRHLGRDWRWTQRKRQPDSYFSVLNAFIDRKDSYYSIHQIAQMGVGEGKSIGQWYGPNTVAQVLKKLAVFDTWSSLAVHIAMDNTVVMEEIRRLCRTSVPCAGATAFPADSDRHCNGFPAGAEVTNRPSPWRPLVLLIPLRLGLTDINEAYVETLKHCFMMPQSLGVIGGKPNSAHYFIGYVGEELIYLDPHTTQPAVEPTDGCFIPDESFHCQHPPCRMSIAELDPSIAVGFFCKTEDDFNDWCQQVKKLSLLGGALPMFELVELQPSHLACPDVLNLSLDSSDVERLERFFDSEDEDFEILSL
# [5] = biological target: G-protein coupled receptor 35 (Homo sapiens, UniProt Q9HC97); experiment: GPR35 antagonists blocking zaprinast-driven arrestin recruitment, primary screen, imaging, U2OS, beta-arrestin-GFP, zaprinast agonist (AID 2058); format: functional;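 also: antagonist potency meaning inhibition of agonist-induced arrestin redistribution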
# [6] = biological target: Signal transducer and activator of transcription 3 (Homo sapiens, UniProt P40763); experiment: STAT3 activators, late-stage profile, late-stage follow-up, cell-based, STAT1 reporter, BCL3 qPCR, cytotoxicity, panel member STAT3 Activation (AID 2049)
# Protein Rev = Protein Rev (Human immunodeficiency virus type 1 group M subtype B (isolate HXB2)(HIV-1), UniProt P04618); experiment: inhibitors of Rev binding to RRE RNA, dose response, biochemical, fluorescence polarization, HIV-1 (AID 434976); parameters: species or system Human immunodeficiency virus 1
# [7] = biological target: Female germline-specific tumor suppressor gld-1 (Caenorhabditis elegans, UniProt Q17339); experiment: inhibitors of GLD-1 binding to TGE RNA, dose response, biochemical, fluorescence polarization, C. elegans (AID 2802);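 also: fluorescence polarization of labeled TGE RNA bound by purified gld-1 protein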
# [8] = biological target: Glyceraldehyde-3-phosphate dehydrogenase (Homo sapiens, UniProt P04406)
# [9] = biological target: T3, Alkaline phosphatase, tissue-nonspecific isozyme (Homo sapiens, UniProt P05186); experiment: human TNAP enzyme inhibitors, SAR follow-up, biochemical, luminescent, dose response (AID 1056)
# T3 sequence (P05186 whole entry): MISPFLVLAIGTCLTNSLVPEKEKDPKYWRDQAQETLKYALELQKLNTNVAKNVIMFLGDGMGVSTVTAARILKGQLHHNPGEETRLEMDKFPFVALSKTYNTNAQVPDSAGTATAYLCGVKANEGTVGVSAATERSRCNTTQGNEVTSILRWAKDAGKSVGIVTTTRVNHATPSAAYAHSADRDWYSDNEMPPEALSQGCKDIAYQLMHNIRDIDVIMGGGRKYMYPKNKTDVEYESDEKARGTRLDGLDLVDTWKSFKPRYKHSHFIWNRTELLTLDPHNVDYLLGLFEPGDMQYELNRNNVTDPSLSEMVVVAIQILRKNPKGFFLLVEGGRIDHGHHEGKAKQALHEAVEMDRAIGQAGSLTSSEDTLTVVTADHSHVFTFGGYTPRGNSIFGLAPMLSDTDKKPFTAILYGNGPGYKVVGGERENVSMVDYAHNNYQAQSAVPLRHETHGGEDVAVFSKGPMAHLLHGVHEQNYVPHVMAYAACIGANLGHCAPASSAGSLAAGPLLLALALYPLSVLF
# [10] = biological target: T3, Alkaline phosphatase, tissue-nonspecific isozyme; experiment: SAR assay for compounds inhibiting TNAP in the absence of phosphate acceptor performed in a luminescent assay. [Related pubchem assays (depositor defined):AID1548, AID1659, AID518]
# Vero = experiment: Vero E6 cell cytotoxicity, SAR follow-up, cytotoxicity control for West Nile virus antiviral project, synthesized analogs (AID 2244); format: functional; settings: Chlorocebus sabaeus
# [11] = growth suppression of PTEN-null colon cells, dose response, cell-based, HCT116 PTEN knockout (AID 1047); format: functional;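 also: HCT116 colon tumor cells with PTEN knocked out; cells exposed to compound for 60 hours before readout; potency for loss of cell viability measured by luminescence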
# X-box-binding protein 1 = biological target: T4, X-box-binding protein 1 (Homo sapiens, UniProt P17861); format: functional, Cricetulus griseus;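 also: confirmatory dose-response counter-screen serving a CHOP assay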
# T4 sequence (P17861 whole entry): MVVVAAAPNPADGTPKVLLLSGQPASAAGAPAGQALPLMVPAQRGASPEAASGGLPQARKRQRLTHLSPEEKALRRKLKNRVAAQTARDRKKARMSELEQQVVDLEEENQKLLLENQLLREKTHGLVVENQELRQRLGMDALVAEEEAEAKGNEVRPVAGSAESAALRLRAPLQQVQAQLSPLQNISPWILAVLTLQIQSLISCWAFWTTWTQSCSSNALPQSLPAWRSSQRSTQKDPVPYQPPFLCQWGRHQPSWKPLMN
# [12] = Luminescence Cell-Based Dose Response HTS to Identify Activators of Luciferase Translation or Activity in H4 […] Cells. [Related pubchem assays: 1829 (Project Summary), 1814 (Primary HTS)]; format: functional
# [13] = Luminescence Cell-Based Dose Confirmation HTS to Identify Activators of 5'UTR Stem-Loop Driven Alpha-Synuclein mRNA Translation in H4 Neuroglioblastoma Cells. [Related pubchem assays: 1829 (Project Summary), 1814 (Primary HTS)]; format: functional
# [14] = biological target: T5, Heat shock 70 kDa protein 1A (Homo sapiens, UniProt P0DMV8); experiment: Hsp70 inhibitors, biochemical, TR-FRET (AID 786)
# [15] = biological target: Protein-tyrosine kinase 2-beta (Homo sapiens, UniProt Q14289);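 also: potency of inhibitors of PYK2 kinase phosphorylation of poly-GT substrate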
# [16] = Cytotoxicity screening for potential Inhibitors of Bacterial Capsule Biogenesis. [Related pubchem assays (depositor defined):AID488970]; format: functional
# H4 = experiment: Luminescence Cell-Based Dose Response HTS to Identify Activators of 5'UTR Stem-Loop Driven Prion Protein mRNA Translation in H4 Neuroglioblastoma Cells. [Related pubchem assays: 1829 (Project Summary), 1814 (Primary HTS)]; format: functional; settings: Homo sapiens
# [17] = growth suppression of beta-catenin-knockout colon cells, dose response, cell-based, HCT116, human colon tumor (AID 1045); format: functional;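 also: HCT116 colon tumor cells with beta catenin knocked out; cells exposed to compound for 60 hours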
# [18] = biological target: T5, Heat shock 70 kDa protein 1A; experiment: Hsp70 inhibitors, probe displacement, primary screen, biochemical, fluorescence polarization (AID 583)
# HEK293 [19] = experiment: PMA/Ionomycin induced NF-kB luciferase assay in 293- NF-kB-Luc stable cells. [Related pubchem assays: 1299, 1270, 1295, 1375, 1287, 1281, 1293, 1291, 1289, 1280, 465, 1364, 1282, 1372, 1365, 1370, 1367, 1366, 1269, 1373, 1292, 1290, 1302, 1371, 1283, 1271, 1294, 1374, 1368, 1369 ]; format: functional, cell-based; settings: Homo sapiens
# HEK293 [20] = experiment: Cytotoxicity assay in HEK293 cells. [Related pubchem assays (depositor defined):AID1266, AID1269, AID1270, AID1271, AID1280, AID1281, AID1282, AID1283, AID1287, AID1289, AID1290, AID1291, AID1292, AID1293, AID1294, AID1295, AID1299, AID1302, AID1364, AID1365, AID1366, AID1367, AID1369, AID1370, AID1371, AID1372, AID1373, AID1374, AID1375, AID1384 …; format: functional, cell-based; settings: Homo sapiens
# [21] = biological target: Luciferin 4-monooxygenase (Photinus pyralis, UniProt P08659); experiment: In vitro luciferase assay using purified luciferase. [Related pubchem assays: 1299, 1270, 1295, 1375, 1287, 1281, 1293, 1291, 1289, 1280, 465, 1364, 1282, 1372, 1365, 1370, 1367, 1366, 1266, 1373, 1292, 1290, 1302, 1371, 1283, 1271, 1294, 1374, 1368, 1369 ]
# Chain of Luciferin 4-monooxygenase (P08659 whole entry): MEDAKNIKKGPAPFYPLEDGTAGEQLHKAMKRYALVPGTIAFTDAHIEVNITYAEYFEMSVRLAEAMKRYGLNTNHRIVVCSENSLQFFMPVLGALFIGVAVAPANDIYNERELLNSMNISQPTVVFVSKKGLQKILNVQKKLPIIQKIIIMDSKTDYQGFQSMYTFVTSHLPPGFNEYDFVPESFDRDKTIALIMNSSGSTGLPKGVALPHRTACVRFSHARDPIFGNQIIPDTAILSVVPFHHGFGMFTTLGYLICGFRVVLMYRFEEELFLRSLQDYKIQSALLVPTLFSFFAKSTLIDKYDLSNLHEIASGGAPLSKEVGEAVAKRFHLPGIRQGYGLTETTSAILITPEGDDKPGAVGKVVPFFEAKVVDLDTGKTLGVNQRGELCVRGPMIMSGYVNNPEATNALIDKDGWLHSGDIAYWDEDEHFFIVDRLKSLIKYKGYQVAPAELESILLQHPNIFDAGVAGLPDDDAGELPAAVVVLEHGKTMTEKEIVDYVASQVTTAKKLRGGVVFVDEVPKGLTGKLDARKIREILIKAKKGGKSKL
# T5 sequence (P0DMV8 whole entry): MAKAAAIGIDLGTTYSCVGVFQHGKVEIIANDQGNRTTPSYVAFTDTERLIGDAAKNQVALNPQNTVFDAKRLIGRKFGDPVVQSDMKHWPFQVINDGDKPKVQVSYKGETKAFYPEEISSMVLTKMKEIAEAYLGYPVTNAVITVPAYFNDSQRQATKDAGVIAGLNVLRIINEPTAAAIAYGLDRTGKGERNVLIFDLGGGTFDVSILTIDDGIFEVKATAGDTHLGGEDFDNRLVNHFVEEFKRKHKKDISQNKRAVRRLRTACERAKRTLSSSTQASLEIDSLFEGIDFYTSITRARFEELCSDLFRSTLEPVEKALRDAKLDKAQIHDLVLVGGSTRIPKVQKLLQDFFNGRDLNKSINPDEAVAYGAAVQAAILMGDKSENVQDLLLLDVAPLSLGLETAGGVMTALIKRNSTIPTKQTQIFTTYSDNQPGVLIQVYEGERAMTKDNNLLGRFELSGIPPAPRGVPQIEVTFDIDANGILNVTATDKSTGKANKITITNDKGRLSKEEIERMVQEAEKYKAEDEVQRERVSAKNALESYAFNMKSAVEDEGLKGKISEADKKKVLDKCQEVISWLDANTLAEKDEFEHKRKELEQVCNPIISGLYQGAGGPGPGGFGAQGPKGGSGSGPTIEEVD
# Chain of Glyceraldehyde-3-phosphate dehydrogenase (P04406 whole entry): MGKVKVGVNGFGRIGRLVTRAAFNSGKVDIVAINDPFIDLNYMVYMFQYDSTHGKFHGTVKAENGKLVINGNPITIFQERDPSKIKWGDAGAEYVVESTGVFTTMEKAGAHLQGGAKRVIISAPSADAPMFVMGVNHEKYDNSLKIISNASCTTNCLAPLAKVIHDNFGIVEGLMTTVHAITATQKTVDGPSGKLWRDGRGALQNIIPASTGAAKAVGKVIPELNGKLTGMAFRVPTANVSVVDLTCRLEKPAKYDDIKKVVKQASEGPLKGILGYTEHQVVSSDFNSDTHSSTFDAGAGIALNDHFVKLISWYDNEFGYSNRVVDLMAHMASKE
# Chain of Protein Rev (P04618 whole entry): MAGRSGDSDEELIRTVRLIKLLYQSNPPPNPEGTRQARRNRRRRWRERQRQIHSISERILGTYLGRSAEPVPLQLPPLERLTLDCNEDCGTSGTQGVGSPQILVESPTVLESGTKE
# Chain of Cytochrome P450 2C19 (P33261 whole entry): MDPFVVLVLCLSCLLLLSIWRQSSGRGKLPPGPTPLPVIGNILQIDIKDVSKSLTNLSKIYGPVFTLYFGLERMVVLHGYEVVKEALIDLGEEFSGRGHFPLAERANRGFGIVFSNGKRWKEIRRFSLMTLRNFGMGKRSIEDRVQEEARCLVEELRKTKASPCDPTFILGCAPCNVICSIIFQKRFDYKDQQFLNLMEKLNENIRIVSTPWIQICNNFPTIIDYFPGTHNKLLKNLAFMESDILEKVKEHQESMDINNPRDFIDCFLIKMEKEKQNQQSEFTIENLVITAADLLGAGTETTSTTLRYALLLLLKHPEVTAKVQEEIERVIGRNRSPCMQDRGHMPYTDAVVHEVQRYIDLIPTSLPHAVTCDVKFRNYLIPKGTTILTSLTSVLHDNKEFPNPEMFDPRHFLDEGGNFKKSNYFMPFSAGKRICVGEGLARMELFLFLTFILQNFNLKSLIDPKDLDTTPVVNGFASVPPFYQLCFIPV
# Chain of G-protein coupled receptor 35 (Q9HC97 whole entry): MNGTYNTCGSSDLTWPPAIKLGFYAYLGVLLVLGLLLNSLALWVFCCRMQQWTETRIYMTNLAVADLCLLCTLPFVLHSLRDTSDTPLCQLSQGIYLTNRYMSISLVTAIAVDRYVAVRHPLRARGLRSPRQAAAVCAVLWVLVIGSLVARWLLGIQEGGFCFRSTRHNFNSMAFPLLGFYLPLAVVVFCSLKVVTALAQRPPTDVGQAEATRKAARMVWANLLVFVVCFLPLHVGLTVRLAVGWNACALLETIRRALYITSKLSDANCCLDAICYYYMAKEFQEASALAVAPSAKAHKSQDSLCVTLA
# Chain of Phospholipase A2 (P04054 whole entry): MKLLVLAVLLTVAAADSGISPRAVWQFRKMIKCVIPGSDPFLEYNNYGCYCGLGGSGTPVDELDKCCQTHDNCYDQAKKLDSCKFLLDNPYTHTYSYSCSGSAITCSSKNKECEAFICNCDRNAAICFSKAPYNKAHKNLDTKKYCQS
# Chain of Tumor necrosis factor (P01375 whole entry, the tested form may be a part): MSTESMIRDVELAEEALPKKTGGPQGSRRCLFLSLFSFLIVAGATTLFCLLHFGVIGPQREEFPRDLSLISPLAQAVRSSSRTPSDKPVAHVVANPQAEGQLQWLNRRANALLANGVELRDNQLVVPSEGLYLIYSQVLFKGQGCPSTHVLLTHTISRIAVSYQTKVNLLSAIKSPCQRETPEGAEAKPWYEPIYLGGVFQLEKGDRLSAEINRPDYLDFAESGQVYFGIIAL
# Chain of Protein-tyrosine kinase 2-beta (Q14289 whole entry): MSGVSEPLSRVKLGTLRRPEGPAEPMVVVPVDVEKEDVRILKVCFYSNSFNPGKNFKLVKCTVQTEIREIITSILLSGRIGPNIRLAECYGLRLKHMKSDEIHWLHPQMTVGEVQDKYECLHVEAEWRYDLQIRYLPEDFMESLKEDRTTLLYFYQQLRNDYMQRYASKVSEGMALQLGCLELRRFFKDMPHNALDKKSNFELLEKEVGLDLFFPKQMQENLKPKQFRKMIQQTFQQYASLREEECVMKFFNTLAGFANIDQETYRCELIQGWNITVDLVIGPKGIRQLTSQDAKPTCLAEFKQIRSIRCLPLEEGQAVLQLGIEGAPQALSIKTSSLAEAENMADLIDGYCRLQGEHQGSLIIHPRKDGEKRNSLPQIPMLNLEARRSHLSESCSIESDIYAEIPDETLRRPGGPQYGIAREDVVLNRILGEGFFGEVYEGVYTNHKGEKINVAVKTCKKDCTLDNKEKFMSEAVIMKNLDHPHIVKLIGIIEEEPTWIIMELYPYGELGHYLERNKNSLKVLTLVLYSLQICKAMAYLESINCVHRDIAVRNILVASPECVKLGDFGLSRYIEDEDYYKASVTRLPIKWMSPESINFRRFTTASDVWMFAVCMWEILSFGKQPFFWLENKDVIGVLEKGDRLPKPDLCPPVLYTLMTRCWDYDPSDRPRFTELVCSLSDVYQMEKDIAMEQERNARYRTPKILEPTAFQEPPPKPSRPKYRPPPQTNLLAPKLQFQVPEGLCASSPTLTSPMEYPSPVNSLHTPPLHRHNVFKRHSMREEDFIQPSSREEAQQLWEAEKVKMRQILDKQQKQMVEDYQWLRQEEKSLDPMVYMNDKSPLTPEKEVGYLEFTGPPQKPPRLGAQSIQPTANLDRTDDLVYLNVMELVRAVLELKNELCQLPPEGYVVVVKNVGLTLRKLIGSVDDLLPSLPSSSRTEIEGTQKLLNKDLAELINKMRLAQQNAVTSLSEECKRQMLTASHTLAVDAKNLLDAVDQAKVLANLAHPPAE
# Chain of Nucleotide-binding oligomerization domain-containing protein 2 (Q9HC29 whole entry, the tested form may be a part): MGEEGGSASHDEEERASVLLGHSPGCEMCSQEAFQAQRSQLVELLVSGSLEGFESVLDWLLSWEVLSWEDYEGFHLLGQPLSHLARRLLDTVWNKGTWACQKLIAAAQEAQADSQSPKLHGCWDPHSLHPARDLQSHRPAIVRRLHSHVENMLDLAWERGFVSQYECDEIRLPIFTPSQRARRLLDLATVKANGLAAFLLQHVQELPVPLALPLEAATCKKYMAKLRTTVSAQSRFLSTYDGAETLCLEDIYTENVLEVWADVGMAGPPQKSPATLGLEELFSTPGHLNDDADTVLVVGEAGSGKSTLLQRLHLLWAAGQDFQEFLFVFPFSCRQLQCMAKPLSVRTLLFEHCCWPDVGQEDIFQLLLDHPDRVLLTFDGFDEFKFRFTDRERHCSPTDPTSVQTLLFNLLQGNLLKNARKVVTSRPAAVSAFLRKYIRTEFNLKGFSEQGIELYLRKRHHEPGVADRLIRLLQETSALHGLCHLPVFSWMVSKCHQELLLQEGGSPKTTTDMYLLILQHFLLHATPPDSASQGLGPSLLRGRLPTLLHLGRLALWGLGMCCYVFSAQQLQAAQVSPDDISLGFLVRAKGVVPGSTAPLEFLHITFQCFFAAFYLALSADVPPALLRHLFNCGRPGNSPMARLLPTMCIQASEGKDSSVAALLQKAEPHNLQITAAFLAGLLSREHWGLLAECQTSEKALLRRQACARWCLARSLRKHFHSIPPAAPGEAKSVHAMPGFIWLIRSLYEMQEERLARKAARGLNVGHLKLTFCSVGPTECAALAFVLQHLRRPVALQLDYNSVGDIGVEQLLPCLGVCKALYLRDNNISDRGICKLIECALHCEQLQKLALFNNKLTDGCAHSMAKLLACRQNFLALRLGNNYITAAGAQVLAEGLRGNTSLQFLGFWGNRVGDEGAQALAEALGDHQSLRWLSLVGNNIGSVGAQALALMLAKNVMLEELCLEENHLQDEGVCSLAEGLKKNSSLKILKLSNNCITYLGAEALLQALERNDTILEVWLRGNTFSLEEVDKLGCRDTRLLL
# Chain of Interleukin-8 (P10145 whole entry): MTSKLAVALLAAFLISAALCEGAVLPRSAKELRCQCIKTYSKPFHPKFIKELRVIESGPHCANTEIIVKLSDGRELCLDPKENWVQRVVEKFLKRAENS
smiles,measurement,setting,value
CC(C)n1cnc2c(Nc3cccc(F)c3)nc(NCCO)nc21,AC50,[1],5.86 µM (active)
O=C(O)c1c(NC(=O)N2CCOCC2)sc2c1CCCC2,IC50,Tumor necrosis factor,> 20 µM (inactive)
same,IC50,[2],1.47 µM (active)
same,IC50,[3],> 20 µM (inactive)
same,IC50,Interleukin-8,> 25 µM (inactive)
same,IC50,HEK293 [4],> 20 µM (inactive)
Cc1c(Cl)cccc1Nc1ccccc1C(=O)O [TOLFENAMIC ACID],AC50,Cytochrome P450 2C19,15.8 µM (inconclusive)
same,IC50,Staphylococcus aureus,459 nM (active)
same,AC50,Cytochrome P450 3A4,inconclusive
same,IC50,Phospholipase A2,7.74 µM (active)
same,IC50,Cysteine protease ATG4B,8.17 µM (active)
COc1ccc(/C=C\C(=O)NCC(=O)N/N=C/c2ccc(O)cc2O)cc1,IC50,[5],1.16 µM (active)
Nc1c(C(=O)Nc2ccccc2)noc1C(=O)c1ccccc1,EC50,[6],> 55.7 µM (inactive)
COc1ccc(/C=C(\CC(=O)O)c2nc3ccccc3s2)cc1O,IC50,Protein Rev,> 75.4 µM (not active)
same,IC50,[7],2.43 µM (active)
O=C(NCCO)c1cc(-c2ccc(Cl)c(Cl)c2Cl)n[nH]1,IC50,[8],> 10 µM (inconclusive)
same,IC50,[9],7.44 nM (active)
same,IC50,[10],4.22 nM (active)
COc1ccc(-c2csc(NC(=O)c3ccccc3F)n2)cc1,CC50,Vero,> 40 µM (active)
O=C(ONc1ccc(N=NC(=O)c2ccccc2O)cc1)c1ccccc1,EC50,[11],20 µM (active)
same,Absolute IC50 (XBP1),X-box-binding protein 1,10 µM
same,EC50,[12],10.1 µM (active)
same,EC50,[13],> 120 µM (not active)
same,IC50,[14],> 100 µM (not active)
same,IC50,[15],5.49 µM (active)
same,CC50,[16],45.1 µM (active)
same,EC50,H4,28.8 µM (active)
same,EC50,[17],21.1 µM (active)
same,IC50,[18],11.7 µM (active)
COc1ccc(CNC(=O)c2ccc([N+](=O)[O-])o2)cc1,EC50,HEK293 [19],4.24 µM (not active)
same,EC50,HEK293 [20],> 8 µM (inactive)
same,EC50,[21],> 8 µM (not active)
